Measured values taken from ChEMBL document CHEMBL1938327, “Thiazolides as novel antiviral agents. 2. Inhibition of hepatitis C virus replication” (J Med Chem, 2011).
pEC50: −log10 of the molar value.

How the values were obtained:
[1] = test system: Hepatitis C virus; assay: Antiviral activity against HCV genotype 1b infected in Ava5 cells assessed as inhibition of viral replication after 3 days by blot hybridization analysis; type: functional, organism-based, Hepacivirus hominis; conditions: Ava5, 72 h
[2] = Cytotoxicity against human Ava5 cells after 3 days by neutral red dye assay; type: cell-based
[3] = Selectivity index, ratio of CC50 for human Ava5 cells to EC50 for HCV genotype 1b infected in human Ava5 cells
[4] = test system: Hepatitis C virus; assay: Antiviral activity against HCV genotype 1a infected in Huh7.5 cells assessed as inhibition of viral replication after 3 days by blot hybridization analysis; type: functional, organism-based, Hepacivirus hominis; conditions: subtype 1a, Huh7.5, 72 h
[5] = Cytotoxicity against human Huh7.5 cells after 3 days by neutral red dye assay; type: cell-based, Huh-7
[6] = Toxicity in po dosed dog; type: organism-based, Canis lupus familiaris; conditions: in vivo
[7] = organism: Rattus norvegicus; assay: Toxicity in rat; type: organism-based; conditions: in vivo
[8] = Selectivity index, ratio of CC50 for human Huh7.5 cells to EC50 for HCV genotype 1a infected in human Huh7.5 cells; parameters: species or system Huh-7
[9] = test system: Canis familiaris; assay: Drug metabolism in dog assessed as deactyl derivative formation at 1 mg/kg, iv after 1 hr; type: ADME, organism-based, Canis lupus familiaris; parameters: dose 1 mg/kg, route intravenous; conditions: in vivo
[10] = test system: Canis familiaris; assay: Drug metabolism in dog assessed as glucurono-conjugate formation at 1 mg/kg, iv after 2 hrs; type: ADME, organism-based, Canis lupus familiaris; parameters: dose 1 mg/kg, route intravenous; conditions: in vivo
[11] = Aqueous solubility of the compound; type: physicochemical; conditions: buffer

SMILES	pEC50 [1]	EC90 [1] [µM]	CC50 at 72 h [2] [µM]	Ratio CC50/EC50 [3]	pEC50 [4]	EC90 [4] [µM]	CC50 at 72 h [5] [µM]	MTD [6] [mg/kg]	Activity [7]	Ratio CC50/EC50 [8]	Drug metabolism [9]	Drug metabolism [10]	solubility [11]
O=C(Nc1ncc(Cl)s1)c1ccccc1O	5.00	10	15	–	–	–	–	–	–	–	–	–	–
CC(=O)Nc1cnc(NC(=O)c2ccccc2O)s1	< 5.00	> 10	11	–	–	–	–	–	–	–	–	–	–
Cc1cccc(C(=O)Nc2ncc(Br)s2)c1O	< 5.72	> 10	15	11	< 5.00	> 10	25	< 25	Toxic	–	–	–	–
COC(=O)c1ccc(NC(=O)c2ccccc2OC(C)=O)cc1	7.22	0.46	4.4	76	–	–	–	–	–	–	–	–	–
O=C(Nc1ncc(Br)s1)c1ccccc1O	5.31	10	20	20	5.55	9.4	88	–	–	31.4	–	–	–
Cc1cnc(NC(=O)c2ccccc2O)s1	5.38	14	45	11	–	–	–	–	–	–	–	–	–
CC(=O)Oc1ccccc1C(=O)Nc1ccc(Br)cc1	6.35	3.4	0.6	1.3	–	–	–	–	–	–	–	–	–
O=C(Nc1ncc(F)s1)c1ccccc1O	< 5.00	> 10	24	–	< 5.00	> 10	2.9	–	–	–	–	–	–
O=C(Nc1ncc([N+](=O)[O-])s1)c1cc(Cl)ccc1O	5.70	5.9	> 100	>50	–	–	–	–	–	–	–	–	–
O=C(Nc1cc(C(F)(F)F)ccc1Cl)c1ccccc1O	8.00	0.03	0.33	65.2	–	–	–	–	–	–	–	–	–
CCOC(=O)c1cnc(NC(=O)c2ccccc2O)s1	< 5.00	> 10	14	–	–	–	–	–	–	–	–	–	–
N#Cc1cnc(NC(=O)c2ccccc2O)s1	< 5.00	> 10	15	4.1	< 5.00	> 10	11	–	–	–	–	–	–
Cc1ccc(O)c(C(=O)Nc2ncc(Cl)s2)c1	< 5.00	> 10	2.3	–	5.00	10	16	–	–	–	Active	Active	–
O=C(Nc1cccc(F)c1)c1ccccc1O	6.89	0.83	3.4	26	–	–	–	–	–	–	–	–	–
CC(=O)Oc1ccccc1C(=O)Nc1ncc([N+](=O)[O-])s1 [NITAZOXANIDE]	6.68	0.93	35	143	6.48	1.1	49	–	–	149	–	–	–
CC(=O)Oc1c(C)cccc1C(=O)Nc1ncc(Cl)s1	6.23	8.9	12	11	6.00	3.8	14	–	–	14	–	–	–
O=C(Nc1cc(C(F)(F)F)cc(C(F)(F)F)c1)c1ccccc1O	5.46	8.1	3.7	1.1	–	–	–	–	–	–	–	–	soluble
Cc1nc(NC(=O)c2ccccc2O)sc1Br	< 5.00	> 10	15	–	–	–	–	–	–	–	–	–	–

SMILES	pEC50 [1]	EC90 [1] [µM]	CC50 at 72 h [2] [µM]	Ratio CC50/EC50 [3]	pEC50 [4]	EC90 [4] [µM]	CC50 at 72 h [5] [µM]	MTD [6] [mg/kg]	Activity [7]	Ratio CC50/EC50 [8]	Drug metabolism [9]	Drug metabolism [10]	solubility [11]
CC(=O)Oc1ccccc1C(=O)Nc1ncc(C(F)(F)F)s1	< 5.37	> 8.2	1.7	0.9	< 5.00	> 10	14	–	–	–	–	–	soluble
CS(=O)(=O)c1csc(NC(=O)c2ccccc2O)n1	6.30	1.7	85	170	–	–	–	–	–	–	–	–	–
O=C(Nc1nc(-c2ccccc2)c(Br)s1)c1ccccc1O	< 5.66	> 7	16	7.3	< 5.00	> 10	62	–	–	–	–	–	–
O=C(Nc1ccccc1Cl)c1ccccc1O	5.42	21	72	19	–	–	–	–	–	–	–	–	–
Cc1ccc(C(=O)Nc2ncc(Cl)s2)c(O)c1	< 5.00	> 10	30	–	–	–	–	–	–	–	–	–	–
CC(=O)Oc1ccccc1C(=O)Nc1ncc(Cl)s1	6.64	1.1	4.3	16	6.40	1.9	5.7	–	–	14	–	–	–
CC(=O)Oc1ccccc1C(=O)Nc1ncc(Br)s1	5.42	11	12	3	5.48	10	21	–	–	6	–	–	–
CC(=O)Oc1ccccc1C(=O)Nc1cccc(F)c1	5.42	11	> 100	26	–	–	–	–	–	–	–	–	–
O=C(Nc1ncc(Br)s1)c1cccc(Cl)c1O	< 5.28	> 10	10	2.7	< 5.00	> 10	11	–	–	–	–	–	–
O=C(Nc1ccc([N+](=O)[O-])cc1Cl)c1cc(Cl)ccc1O [NICLOSAMIDE]	6.80	0.7	10	16.2	–	–	–	–	–	–	–	–	soluble
O=C(Nc1ncc([N+](=O)[O-])s1)c1ccccc1O [TIZOXANIDE]	6.82	0.81	15	100	6.60	1	14	–	–	56	–	–	–
O=C(Nc1nc(-c2ccccc2)cs1)c1ccccc1O	< 5.46	≥ 10	14	7.4	< 5.00	> 10	29	–	–	–	–	–	–
C[S+]([O-])c1csc(NC(=O)c2ccccc2O)n1 (stereo unspecified)	5.70	4.6	63	32	–	–	–	–	–	–	–	–	–
CS(=O)(=O)c1ccc(NC(=O)c2ccccc2O)cc1	< 5.00	> 10	> 100	–	–	–	–	–	–	–	–	–	–
CS(=O)(=O)c1cnc([N-]C(=O)c2ccccc2O)s1.[Na+]	5.82	5.2	43	29	–	–	–	–	–	–	–	–	–
CC(=O)Oc1ccccc1C(=O)Nc1nc(C(F)(F)F)cs1	< 5.00	> 10	2.8	–	–	–	–	–	–	–	–	–	soluble
CC(=O)Oc1ccc(C)cc1C(=O)Nc1ncc(Br)s1	5.52	7.8	10	3.3	5.52	8.6	11	–	–	3.7	–	–	–
